# Test system: PBMCs
# Assay: GR antagonist block of MP immunosuppressive effects in anti-CD3 stimulated PBMCs (IFNg ELISA)
# Format: cell-based, human
# Conditions: plate-bound anti-CD3 48 hours, MP plus mifepristone
# Method: Peripheral blood lymphocytes were stimulated in 96-well culture plate (2×10^5 cells/well) with plate bound anti-CD3 mAb (0.5 μg/ml), and cultured for 48 h at 37° C. The cultured supernatants were removed and stored at […]. Cytokine concentration in the supernatants were measured by ELISA using human cytokine kits.
# Another approach to investigate the functionality of GR is by the examination of the responsiveness of immune cell subsets to the glucocorticoid antagonist, mifepristone. […] This indicates an impairment in GR signaling which contributes to steroid resistance, which could be tested in stressed and non-stressed individuals as described herein. Such an impairment could also optionally act as a biomarker for the stress diagnostic kit according to at least some embodiments thereof.
# PBMCs were purified from young healthy-aged and AD subjects, stimulated by plate-bound anti-CD3 mAb (0.5 micro-g/ml) for 48 hours in the presence of MP or with both MP and GR antagonist, mifepristone. The cultured supernatants were examined for IFNg production by ELISA; the results are shown as percentage of the levels measured without MP.
structure (smiles),measurement,setting,value
CC#C[C@]1(O)CC[C@H]2[C@@H]3CCC4=CC(=O)CCC4=C3[C@@H](c3ccc(N(C)C)cc3)C[C@@]21C [mifepristone],blocking of MP immunosuppressive effects (IFNg production),PBMCs of aged and Alzheimer's disease (AD) subjects,impaired
same,blocking of MP immunosuppressive effects (IFNg production),PBMCs of young subjects,partially blocks
